From the kinase profiling compilation of Christmann-Franck et al. (2016)

Assays:
Assay in all cases: radiometric filter-binding kinase assay, Kinase HotSpot
Details in all cases: compound 0.5 µM; ATP 10 µM
[1] = biological target: HIPK3 (human) (UniProt Q9H422)
[2] = biological target: BLK (human) (UniProt P51451)
[3] = biological target: MARK4 (human) (UniProt Q96L34)
[4] = biological target: RPS6KA3 KD1 KD2 (human) (UniProt P51812)
[5] = biological target: MAPK1 (human) (UniProt P28482)
[6] = biological target: CDK9 CCNK (human) (UniProt O75909+P50750)
[7] = biological target: PIM2 (human) (UniProt Q9P1W9)
[8] = biological target: MAP4K2 (human) (UniProt Q12851)
[9] = biological target: CDK5 CDK5R1 p25 (human) (UniProt Q00535+Q15078)
[10] = biological target: MELK (human) (UniProt Q14680)
[11] = biological target: TSSK2 (human) (UniProt Q96PF2)
[12] = biological target: TEC (human) (UniProt P42680)
[13] = biological target: EPHA3 (human) (UniProt P29320)
[14] = biological target: CDK4 CCND3 (human) (UniProt P30281+P11802)
[15] = biological target: NEK7 (human) (UniProt Q8TDX7)
[16] = biological target: CSNK1E (human) (UniProt P49674)
[17] = biological target: CAMK2D (human) (UniProt Q13557)
[18] = biological target: FER (human) (UniProt P16591)
[19] = biological target: RPS6KA2 KD1 KD2 (human) (UniProt Q15349)
[20] = biological target: CHUK (human) (UniProt O15111)
[21] = biological target: KIT (human) (UniProt P10721)
[22] = biological target: CHEK2 (human) (UniProt O96017)
[23] = biological target: ULK1 (human) (UniProt O75385)
[24] = biological target: TXK (human) (UniProt P42681)
[25] = biological target: MAP3K8 (human) (UniProt P41279)
[26] = biological target: PBK (human) (UniProt Q96KB5)
[27] = biological target: RIPK2 (human) (UniProt O43353)
[28] = biological target: CHEK1 (human) (UniProt O14757)
[29] = biological target: FGFR4 (human) (UniProt P22455)
[30] = biological target: MATK (human) (UniProt P42679)
[31] = biological target: TTK (human) (UniProt P33981)
[32] = biological target: PNCK (human) (UniProt Q6P2M8)
[33] = biological target: NEK3 (human) (UniProt P51956)
[34] = biological target: CDK2 CCNA2 (human) (UniProt P24941+P20248)
[35] = biological target: CDK2 CCNE1 (human) (UniProt P24941+P24864)
[36] = biological target: PRKCZ (human) (UniProt Q05513)
[37] = biological target: FRK (human) (UniProt P42685)
[38] = biological target: TAOK1 (human) (UniProt Q7L7X3)
[39] = biological target: PRKD3 (human) (UniProt O94806)
[40] = biological target: TYRO3 (human) (UniProt Q06418)
[41] = biological target: MAPK8 (human) (UniProt P45983)

ULK1 (human), sequence (O75385 whole entry, looked up): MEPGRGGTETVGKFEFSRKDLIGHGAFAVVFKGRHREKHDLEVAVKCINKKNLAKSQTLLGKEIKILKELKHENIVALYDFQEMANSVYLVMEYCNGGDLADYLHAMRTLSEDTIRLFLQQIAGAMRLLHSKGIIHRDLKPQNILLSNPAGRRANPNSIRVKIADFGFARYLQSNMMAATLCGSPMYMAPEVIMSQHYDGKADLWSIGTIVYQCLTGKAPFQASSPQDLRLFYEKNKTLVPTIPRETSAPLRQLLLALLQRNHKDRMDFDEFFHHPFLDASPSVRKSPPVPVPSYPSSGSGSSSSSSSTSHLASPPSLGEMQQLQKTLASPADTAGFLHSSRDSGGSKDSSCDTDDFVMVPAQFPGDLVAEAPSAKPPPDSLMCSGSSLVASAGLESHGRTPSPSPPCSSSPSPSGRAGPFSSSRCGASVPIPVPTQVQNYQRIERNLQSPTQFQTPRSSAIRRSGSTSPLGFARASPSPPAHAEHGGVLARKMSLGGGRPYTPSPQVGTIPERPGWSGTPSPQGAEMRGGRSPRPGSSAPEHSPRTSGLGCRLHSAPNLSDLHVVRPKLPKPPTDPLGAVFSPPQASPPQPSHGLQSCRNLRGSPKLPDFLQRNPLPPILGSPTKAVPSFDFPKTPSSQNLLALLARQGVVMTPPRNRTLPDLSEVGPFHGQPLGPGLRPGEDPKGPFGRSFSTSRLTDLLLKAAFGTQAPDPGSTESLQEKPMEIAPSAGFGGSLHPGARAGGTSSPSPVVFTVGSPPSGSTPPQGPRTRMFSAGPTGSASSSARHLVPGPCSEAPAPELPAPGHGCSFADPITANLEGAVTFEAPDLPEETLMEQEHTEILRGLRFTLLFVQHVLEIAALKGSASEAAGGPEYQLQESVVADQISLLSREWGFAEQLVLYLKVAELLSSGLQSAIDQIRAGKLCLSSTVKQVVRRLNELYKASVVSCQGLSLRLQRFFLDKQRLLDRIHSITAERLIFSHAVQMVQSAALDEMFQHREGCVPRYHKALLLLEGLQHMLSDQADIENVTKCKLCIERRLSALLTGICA
BLK (human), sequence (P51451 whole entry, looked up): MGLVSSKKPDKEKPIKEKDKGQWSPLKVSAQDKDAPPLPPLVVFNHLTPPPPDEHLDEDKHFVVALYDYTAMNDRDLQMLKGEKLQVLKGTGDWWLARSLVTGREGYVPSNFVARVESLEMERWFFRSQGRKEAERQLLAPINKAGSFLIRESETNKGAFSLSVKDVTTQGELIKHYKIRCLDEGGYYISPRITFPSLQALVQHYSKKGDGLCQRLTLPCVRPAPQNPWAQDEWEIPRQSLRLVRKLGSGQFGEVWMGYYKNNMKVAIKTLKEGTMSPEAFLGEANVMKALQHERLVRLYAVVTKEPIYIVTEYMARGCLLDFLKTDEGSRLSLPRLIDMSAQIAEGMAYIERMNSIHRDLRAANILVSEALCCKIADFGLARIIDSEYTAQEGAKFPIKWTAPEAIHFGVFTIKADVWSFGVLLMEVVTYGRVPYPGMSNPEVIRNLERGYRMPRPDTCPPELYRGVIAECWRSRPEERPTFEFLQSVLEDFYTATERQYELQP
TAOK1 (human), sequence (Q7L7X3 whole entry, looked up): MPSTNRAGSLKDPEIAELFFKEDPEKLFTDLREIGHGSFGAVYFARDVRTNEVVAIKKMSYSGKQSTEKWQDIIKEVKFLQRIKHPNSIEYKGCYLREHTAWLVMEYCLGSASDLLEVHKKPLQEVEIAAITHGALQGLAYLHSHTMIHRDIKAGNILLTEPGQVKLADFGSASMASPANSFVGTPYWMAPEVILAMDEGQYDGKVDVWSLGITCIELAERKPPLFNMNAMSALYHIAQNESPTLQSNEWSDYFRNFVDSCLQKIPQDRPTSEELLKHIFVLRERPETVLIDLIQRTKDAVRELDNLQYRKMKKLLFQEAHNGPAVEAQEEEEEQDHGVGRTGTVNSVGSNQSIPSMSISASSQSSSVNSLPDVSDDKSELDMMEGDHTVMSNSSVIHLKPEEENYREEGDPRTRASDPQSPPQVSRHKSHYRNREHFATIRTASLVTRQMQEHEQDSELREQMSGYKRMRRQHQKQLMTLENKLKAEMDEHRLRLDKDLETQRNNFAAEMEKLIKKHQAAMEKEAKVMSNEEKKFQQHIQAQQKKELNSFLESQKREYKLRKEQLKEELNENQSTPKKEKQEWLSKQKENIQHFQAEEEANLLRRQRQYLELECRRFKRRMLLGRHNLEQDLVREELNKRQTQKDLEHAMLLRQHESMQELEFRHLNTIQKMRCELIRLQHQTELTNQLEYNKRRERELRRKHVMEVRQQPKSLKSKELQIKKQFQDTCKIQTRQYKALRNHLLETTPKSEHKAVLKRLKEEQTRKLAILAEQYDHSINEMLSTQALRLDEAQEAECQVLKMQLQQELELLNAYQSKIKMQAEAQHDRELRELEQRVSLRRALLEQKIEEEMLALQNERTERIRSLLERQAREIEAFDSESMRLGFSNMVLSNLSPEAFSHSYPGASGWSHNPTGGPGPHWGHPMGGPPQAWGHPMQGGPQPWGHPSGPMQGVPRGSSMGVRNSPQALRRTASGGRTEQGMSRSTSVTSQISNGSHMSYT
TYRO3 (human), sequence (Q06418 whole entry, looked up): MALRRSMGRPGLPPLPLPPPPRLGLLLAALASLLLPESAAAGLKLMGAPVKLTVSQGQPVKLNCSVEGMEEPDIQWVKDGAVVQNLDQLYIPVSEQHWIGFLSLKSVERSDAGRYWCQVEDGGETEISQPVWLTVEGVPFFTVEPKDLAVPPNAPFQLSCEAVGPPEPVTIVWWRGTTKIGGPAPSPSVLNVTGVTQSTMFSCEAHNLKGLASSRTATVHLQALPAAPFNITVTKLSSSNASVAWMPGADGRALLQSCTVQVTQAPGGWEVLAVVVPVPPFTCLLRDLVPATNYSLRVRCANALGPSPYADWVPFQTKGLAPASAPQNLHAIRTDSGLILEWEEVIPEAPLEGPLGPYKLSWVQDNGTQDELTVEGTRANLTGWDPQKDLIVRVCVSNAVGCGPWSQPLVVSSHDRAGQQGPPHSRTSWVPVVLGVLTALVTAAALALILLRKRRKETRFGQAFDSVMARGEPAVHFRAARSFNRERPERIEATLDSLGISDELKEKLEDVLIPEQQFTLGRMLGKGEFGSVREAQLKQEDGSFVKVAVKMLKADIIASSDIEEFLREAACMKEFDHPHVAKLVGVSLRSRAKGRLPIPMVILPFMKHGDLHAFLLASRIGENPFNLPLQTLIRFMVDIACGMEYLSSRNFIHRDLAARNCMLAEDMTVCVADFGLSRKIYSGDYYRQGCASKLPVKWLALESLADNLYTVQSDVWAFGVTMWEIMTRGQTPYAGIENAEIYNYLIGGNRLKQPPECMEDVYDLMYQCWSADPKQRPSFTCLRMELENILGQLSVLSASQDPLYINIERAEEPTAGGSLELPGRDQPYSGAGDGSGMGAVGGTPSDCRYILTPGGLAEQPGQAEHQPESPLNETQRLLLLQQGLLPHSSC
TTK (human), sequence (P33981 whole entry, looked up): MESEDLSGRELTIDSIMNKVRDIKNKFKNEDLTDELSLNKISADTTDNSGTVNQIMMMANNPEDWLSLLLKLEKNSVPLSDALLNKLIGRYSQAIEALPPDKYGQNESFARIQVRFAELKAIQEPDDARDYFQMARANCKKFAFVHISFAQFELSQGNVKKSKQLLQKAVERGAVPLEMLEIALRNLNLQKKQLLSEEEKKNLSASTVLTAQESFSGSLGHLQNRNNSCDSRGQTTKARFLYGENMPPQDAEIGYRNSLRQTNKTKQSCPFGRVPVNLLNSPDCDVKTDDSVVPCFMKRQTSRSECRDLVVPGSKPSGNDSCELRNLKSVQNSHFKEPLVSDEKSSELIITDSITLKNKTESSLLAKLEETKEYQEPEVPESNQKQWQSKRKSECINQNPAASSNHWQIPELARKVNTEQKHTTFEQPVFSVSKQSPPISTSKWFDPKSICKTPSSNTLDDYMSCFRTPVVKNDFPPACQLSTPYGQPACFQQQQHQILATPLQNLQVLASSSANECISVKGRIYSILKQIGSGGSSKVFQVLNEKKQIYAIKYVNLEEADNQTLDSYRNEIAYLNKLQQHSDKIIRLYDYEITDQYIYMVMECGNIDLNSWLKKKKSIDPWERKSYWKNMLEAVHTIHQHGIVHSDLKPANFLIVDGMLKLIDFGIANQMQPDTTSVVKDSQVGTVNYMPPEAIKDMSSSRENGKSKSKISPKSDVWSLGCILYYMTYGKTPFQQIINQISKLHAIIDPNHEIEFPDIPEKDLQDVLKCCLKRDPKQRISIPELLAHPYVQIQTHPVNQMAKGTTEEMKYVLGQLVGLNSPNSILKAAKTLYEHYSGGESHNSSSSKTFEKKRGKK
PNCK (human), sequence (Q6P2M8 whole entry, looked up): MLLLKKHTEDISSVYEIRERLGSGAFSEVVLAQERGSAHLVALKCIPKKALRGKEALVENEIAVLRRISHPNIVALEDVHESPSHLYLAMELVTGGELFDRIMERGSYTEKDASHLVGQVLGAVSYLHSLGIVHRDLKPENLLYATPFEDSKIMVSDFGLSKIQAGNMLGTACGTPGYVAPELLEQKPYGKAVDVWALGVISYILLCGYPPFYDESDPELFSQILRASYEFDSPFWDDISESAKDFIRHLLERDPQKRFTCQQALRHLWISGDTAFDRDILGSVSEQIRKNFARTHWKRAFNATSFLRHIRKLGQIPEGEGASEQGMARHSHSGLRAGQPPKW
CDK2 CCNE1 (human), sequence (P24864 whole entry, looked up, other chains not shown): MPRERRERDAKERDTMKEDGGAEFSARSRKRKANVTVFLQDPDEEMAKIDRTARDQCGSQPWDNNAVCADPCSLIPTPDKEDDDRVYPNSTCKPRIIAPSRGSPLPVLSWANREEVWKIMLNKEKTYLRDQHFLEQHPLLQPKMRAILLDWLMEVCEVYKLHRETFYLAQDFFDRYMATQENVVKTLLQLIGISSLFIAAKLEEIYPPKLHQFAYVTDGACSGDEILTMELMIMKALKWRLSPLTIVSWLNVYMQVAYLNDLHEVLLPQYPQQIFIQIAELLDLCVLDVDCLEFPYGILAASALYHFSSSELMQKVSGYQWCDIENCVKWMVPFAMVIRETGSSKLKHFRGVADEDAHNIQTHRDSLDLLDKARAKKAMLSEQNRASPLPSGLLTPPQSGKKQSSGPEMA

Row | Compound | residual activity [1] | residual activity [2] | residual activity [3] | residual activity [5] | residual activity [6] | residual activity [7] | residual activity [8] | residual activity [10] | residual activity [11] | residual activity [12] | residual activity [13] | residual activity [14] | residual activity [15] | residual activity [16] | residual activity [17] | residual activity [18] | residual activity [19] | residual activity [21] | residual activity [22] | residual activity [23] | also measured
1 | c1ccc(-c2n[nH]cc2-c2ccnc3ccccc23)nc1 | 97% | 99.9% | 105% | 108% | 98.7% | 115% | 103% | 93.3% | 83.5% | 106% | 99.3% | 102% | 102% | 53.9% | 101% | 86% | 96.3% | 93.5% | 96.6% | 85.9% | residual activity [4]: 101%; residual activity [9]: 97.2%; residual activity [20]: 94.2%; residual activity [24]: 89.1%; residual activity [25]: 91.1%; residual activity [26]: 91.9%; residual activity [27]: 64.7%; residual activity [28]: 99.7%; residual activity [29]: 80.6%; residual activity [30]: 87.9%; residual activity [31]: 97.4%; residual activity [32]: 98.3%; residual activity [33]: 90.2%; residual activity [34]: 98.7%; residual activity [35]: 91.3%; residual activity [36]: 115%; residual activity [37]: 92.8%; residual activity [38]: 93%; residual activity [39]: 56.1%; residual activity [40]: 124%
2 | Cc1ccc(Nc2nccc(N(C)c3ccc4c(C)n(C)nc4c3)n2)cc1S(N)(=O)=O | 103% | 75.6% | 98% | 103% | 92.7% | 101% | 72.5% | 87.5% | 102% | 101% | 94.1% | 96% | 101% | 97.5% | 99.4% | 81.3% | 93.2% | 10.9% | 95.1% | 97.3% | residual activity [4]: 99.1%; residual activity [9]: 95.1%; residual activity [20]: 99.4%; residual activity [24]: 40.2%; residual activity [25]: 95.2%; residual activity [26]: 101%; residual activity [27]: 68.2%; residual activity [28]: 110%; residual activity [29]: 68.3%; residual activity [30]: 104%; residual activity [31]: 73.4%; residual activity [32]: 95.9%; residual activity [33]: 94.2%; residual activity [34]: 96.1%; residual activity [35]: 96.4%; residual activity [36]: 97.7%; residual activity [37]: 58.1%; residual activity [38]: 28.9%; residual activity [39]: 90%; residual activity [40]: 92%
3 | Oc1cccc(-c2nc(N3CCOCC3)c3oc4ncccc4c3n2)c1 | 93.8% | 101% | 93.4% | 89% | 96% | 96.9% | 93% | 75.5% | 102% | 113% | 93.7% | 92.5% | 97.3% | 87.1% | 96.2% | 97.8% | 88.1% | 88.9% | 90.4% | 113% | residual activity [41]: 89.8%; residual activity [4]: 101%; residual activity [9]: 77.9%; residual activity [20]: 94.8%; residual activity [24]: 94.8%; residual activity [25]: 99.2%; residual activity [26]: 88.7%; residual activity [27]: 87.4%; residual activity [29]: 102%; residual activity [30]: 86.7%; residual activity [31]: 93.3%; residual activity [32]: 96.7%; residual activity [33]: 92.9%; residual activity [34]: 104%; residual activity [35]: 85.5%; residual activity [36]: 99.1%; residual activity [37]: 91.3%; residual activity [38]: 91.6%; residual activity [39]: 92.9%; residual activity [40]: 102%
4 | O=S(=O)(c1cccc2cnccc12)N1CCCNCC1 | 107% | 85.3% | 103% | 98.1% | 86% | 93.2% | 45.7% | 78.6% | 80.2% | 109% | 105% | 98.5% | 97.5% | 99.3% | 98.5% | 103% | 79.9% | 96.7% | 98.9% | 103% | residual activity [41]: 89.7%; residual activity [24]: 84.1%; residual activity [25]: 91.8%; residual activity [26]: 100%; residual activity [27]: 86.4%; residual activity [29]: 82.8%; residual activity [30]: 99.6%; residual activity [31]: 99.1%; residual activity [32]: 91.6%; residual activity [36]: 94.7%; residual activity [37]: 78.1%; residual activity [38]: 123%; residual activity [39]: 65.8%; residual activity [40]: 87.9%
5 | CCN(CC)CCNC(=O)c1c(C)[nH]c(/C=C2\C(=O)Nc3ccc(F)cc32)c1C | 47.3% | 28.7% | 24.7% | 98.5% | 80.2% | 97.2% | 34.4% | 10.4% | 72.9% | 94.8% | 84% | 93% | 93.5% | 46.9% | 11.6% | 31.6% | 17.3% | 8.74% | 7.13% | 16.3% | residual activity [41]: 91.8%; residual activity [4]: 35.5%; residual activity [20]: 92.4%; residual activity [24]: 92.6%; residual activity [25]: 117%; residual activity [26]: 106%; residual activity [27]: 104%; residual activity [28]: 29.2%; residual activity [29]: 92.5%; residual activity [30]: 88.8%; residual activity [31]: 68%; residual activity [32]: 98.5%; residual activity [33]: 91.6%; residual activity [36]: 91.7%; residual activity [37]: 84.4%; residual activity [38]: 71.5%; residual activity [39]: 16.6%; residual activity [40]: 28.3%
